From US10391150B2, “Treatments for migraine and related disorders” (The University of Chicago, priority 2011, dated 2019) come the findings set out here.

Common to all, as to type: cell-based, rat
Assay [1] has as its system CA3 pyramidal neuron spontaneous activity. Kind of assay: Spontaneous CA3 pyramidal neuron spiking / bursting in slice cultures. The protocol:
FIGS. 12a-12e IGF-1 increased spontaneous neuronal spiking activity. (FIG. 12a) Exemplary recording of unstimulated control CA3 pyramidal layer spontaneous electrophysiological activity. (FIG. 12b) Exemplary recording of 3-day IGF-1-exposed CA3 pyramidal layer spontaneous electrophysiological activity. […] Seven day treatments consisted of IGF-1 exposure for only 12 hours daily. Comparisons between groups made via ANOVA plus Holm-Sidak post hoc testing.

In assay [2] the test system is TNF-α mRNA. Kind of assay: TNF-α mRNA after SD in slice cultures. As to conditions: two hours after SD evoked every 7-9 minutes for an hour. From the text:
This prompted the inventors to examine whether insulin could reduce SD susceptibility by increasing CA3 pyramidal neuron bursting. The inventors induced SD trans-synaptically in rat HSC using electrical stimuli (100 μs pulses @ 10 Hz for 1 s) ranging from 1 to 10,000 nC in order to determine SD threshold in sham and experimental groups (Pusic et al., 2011). Results were based on n≥3-6/group. […] This insulin dose approximates the pharmacological levels seen in humans treated with nasal insulin. […] The inventors hypothesized that the effect of insulin occurred through IGF-1 receptor cross-talk.
After an hour of SD, slices were allowed to recover for 2 hours and then harvested for total RNA isolation and PCR amplification of cytokine targets. […] Next, dilution curve amplifications of primers were checked to be sure primers produced uniform amplification differences. For example, optimal amplifications show a uniform increase in Ct thresholds. In contrast, amplifications are not uniform with defective primers.
These positive samples were used for PCR array screening. Next, PCR array technology was used as a means more sensitive than traditional gene chips to look for evidence of T-cells in adult hippocampal slice cultures. The gene expression screen for inflammatory cytokine changes was completed by RT^2 Profiler™ PCR Arrays.

The subject of assay [3] is OS in microglia and astrocytes of hippocampal slice cultures. Kind of assay: Cell-specific OS from SD (CellROX, confocal microscopy). Particulars: IGF-1 100 ng/mL for three days. From the text:
FIG. 13 Oxidative stress from SD preferentially rises in astrocytes and microglia, with the latter effect mitigated by IGF-1. The inventors have recently shown that spreading depression (SD), the most likely cause of migraine aura and perhaps migraine (Lauritzen and Kraig, 2005), occurs with increased oxidative stress (OS) and that OS, in turn, increases SD susceptibility (Grinberg et al., 2012). Reactive oxygen and nitrogen species that cause OS have both autocrine and paracrine signaling capacities that can affect SD susceptibility by altering excitability (Kishida and Klann, 2007). Accordingly, the inventors looked for the cellular origin of OS from SD. Here the inventors used hippocampal slice cultures (HSC) to probe for cell-specific changes in OS from SD. SD was induced trans-synaptically in rat HSCs using bipolar electrical stimuli at the dentate gyrus (Pusic et al., 2011). Six SDs were induced every 7-9 min over an hr, followed by 24 hr incubation in CellROX™, a fixable fluorogenic probe for measuring OS (Grinberg et al., 2012). HSCs were then fixed in 10% buffered formalin phosphate. Other fixatives (PLP, 4% paraformaldehyde) prevented detection of OS change. Tissue was then labeled for neurons (anti-NeuN), oligodendrocytes (anti-RIP), astrocytes (anti-GFAP), or for microglia (isolectin GS-IB4). […]

Assay [4] relates to glutathione. Kind of assay: Slice culture glutathione by Thiol Tracker. Particulars: pulsed exposure to IFN-γ or exosomes from IFN-γ-pulsed slice cultures. From the text: FIGS. 17A-17B. Detection of an IFN-γ-induced rise in slice culture glutathione using Thiol Tracker™, a fluorescent indicator of glutathione. […] (FIG. 17B) Furthermore, this increase is significant (p<0.001; n≥5/group) and can be mimicked by exposure to exosomes isolated from slice cultures activated by pulsed-exposure to IFN-γ.
Since stimulated immune cells release exosomes that are capable of reducing OS in recipient cells, the inventors next tested whether IFN-γ stimulated slice cultures (and possibly their microglia) to release exosomes that mimicked the effects of IFN-γ. […] IFN-γ, when pulsed onto slice cultures for 12 hours triggers the release of nutritive exosomes that mimic the effect of pulsed exposure to IFN-γ (16, 17). Since pulsed-exposure to IFN-γ reduces OS and glutathione is a naturally occurring inhibitor of neutral sphingomyelinase, the inventors probed for an IFN-γ-induced rise in slice culture glutathione using Thiol Tracker™, a fluorescent indicator of glutathione (FIG. 17).

On to Insulin-like growth factor 1 [IGF-1], for which, in assay [1] (3-day IGF-1 treatment), the “spontaneous CA3 pyramidal neuron bursting versus control” value is recorded as “increase in spontaneous CA3 pyramidal neuron bursting”. Also, the “spontaneous CA3 pyramidal neuron bursting versus control” value in assay [1] (7-day IGF-1 treatment, 12 hours daily) is reported as “increase in spontaneous CA3 pyramidal neuron bursting”. Also, in assay [1] (acute IGF-1 treatment), the “spontaneous CA3 pyramidal neuron spiking versus control” value is “increase in spontaneous CA3 pyramidal neuron spiking”. Further, in assay [2], the “TNF-α mRNA levels” value is recorded as “did not involve a change in TNF-α mRNA levels”. Moreover, in assay [3], the “OS from SD in microglia” value was “decreased” and the “astrocytic OS from SD” value was “unchanged”.

B1: Interferon-gamma (protein, listed as Homo sapiens)
chain: MKYTSYILAFQLCIVLGSLGCYCQDPYVKEAENLKKYFNAGHSDVADNGTLFLGILKNWKEESDRKIMQSQIVSFYFKLFKNFKDDQSIQKSVETIKEDMNVKFFNSNKKKRDDFEKLTNYSVTDLNVQRKAIHELIQVMAELSPAAKTGKRKRSQMLFRGRRASQ
With B1, in assay [4], the “slice culture / microglial glutathione” value is given as “selectively increases microglial glutathione”.
